Earlier results in patent US9201077B2 (Colorado State University Research Foundation, priority 2009, dated 2015).

Test system: antibody used in progesterone assays
Details: conventional progesterone assay

SMILES | cross-reaction with the antibody used in progesterone assays
C=CC[C@]1(O)CC[C@H]2[C@@H]3CCC4=CC(=O)CCC4=C3C=C[C@@]21C [altrenogest] | does not cross-react

Test system: Anti-Progesterone (R4859) Antibody raised against 11α-hemisuccinate progesterone
Details: tested by UC Davis Endocrinology Laboratory

SMILES | % Cross Reaction
CC(=O)[C@H]1CC[C@H]2[C@@H]3CCC4=CC(=O)CC[C@]4(C)[C@H]3[C@H](O)C[C@]12C [11α-OH-Progesterone] | 40.00%
CC(=O)[C@@]1(O)CC[C@H]2[C@@H]3CCC4=CC(=O)CC[C@]4(C)[C@H]3CC[C@@]21C [17α-OH-Progesterone] | 0.38%
C[C@]12CC[C@@H]3c4ccc(O)cc4CC[C@H]3[C@@H]1CC[C@@H]2O [Estradiol 17β] | <0.01%
CC(=O)[C@H]1CC[C@H]2[C@@H]3CC=C4C[C@@H](O)CC[C@]4(C)[C@H]3CC[C@]12C [Pregnenolone] | 0.12%
C[C@]12CCC(=O)C=C1CC[C@@H]1[C@@H]2[C@@H](O)C[C@@]2(C)[C@H]1CC[C@]2(O)C(=O)CO [Cortisol] | <0.04%
C[C@H](O)[C@H]1CC[C@H]2[C@@H]3CC[C@@H]4C[C@H](O)CC[C@]4(C)[C@H]3CC[C@]12C [Pregnanediol] | <0.01%
C[C@]12CC[C@H]3[C@@H](CCC4=CC(=O)CC[C@@]43C)[C@@H]1CC[C@@H]2O [Testosterone] | <0.01%
CC(=O)[C@H]1CC[C@H]2[C@@H]3CCC4=CC(=O)CC[C@]4(C)[C@H]3CC[C@]12C [Progesterone] | 100.00%
CC(=O)[C@H]1CC[C@H]2[C@@H]3CC[C@H]4CC(=O)CC[C@]4(C)[C@H]3CC[C@]12C [5α-Pregnane-3,20-dione] | 12.19%
C[C@H](O)[C@H]1CC[C@H]2[C@@H]3CCC4=CC(=O)CC[C@]4(C)[C@H]3CC[C@]12C [20α-OH-Progesterone] | 0.13%
C[C@@H](O)[C@H]1CC[C@H]2[C@@H]3CCC4=CC(=O)CC[C@]4(C)[C@H]3CC[C@]12C [20β-OH-Progesterone] | 0.13%
